The target in the experiment is Histone-lysine N-methyltransferase KMT5B (Homo sapiens, UniProt Q4FZB7). In words: Inhibition of human SUV420H1 transcript variant 2 using Nucleosomes and [3H]SAM as substrate incubated for 30 mins to 1 hr by HotSpot kinase assay.

Consider 1 compound from BindingDB's records for PubMed 28741798 (Daiichi Sankyo Co., Ltd).

Chain of Histone-lysine N-methyltransferase KMT5B (Q4FZB7 whole entry): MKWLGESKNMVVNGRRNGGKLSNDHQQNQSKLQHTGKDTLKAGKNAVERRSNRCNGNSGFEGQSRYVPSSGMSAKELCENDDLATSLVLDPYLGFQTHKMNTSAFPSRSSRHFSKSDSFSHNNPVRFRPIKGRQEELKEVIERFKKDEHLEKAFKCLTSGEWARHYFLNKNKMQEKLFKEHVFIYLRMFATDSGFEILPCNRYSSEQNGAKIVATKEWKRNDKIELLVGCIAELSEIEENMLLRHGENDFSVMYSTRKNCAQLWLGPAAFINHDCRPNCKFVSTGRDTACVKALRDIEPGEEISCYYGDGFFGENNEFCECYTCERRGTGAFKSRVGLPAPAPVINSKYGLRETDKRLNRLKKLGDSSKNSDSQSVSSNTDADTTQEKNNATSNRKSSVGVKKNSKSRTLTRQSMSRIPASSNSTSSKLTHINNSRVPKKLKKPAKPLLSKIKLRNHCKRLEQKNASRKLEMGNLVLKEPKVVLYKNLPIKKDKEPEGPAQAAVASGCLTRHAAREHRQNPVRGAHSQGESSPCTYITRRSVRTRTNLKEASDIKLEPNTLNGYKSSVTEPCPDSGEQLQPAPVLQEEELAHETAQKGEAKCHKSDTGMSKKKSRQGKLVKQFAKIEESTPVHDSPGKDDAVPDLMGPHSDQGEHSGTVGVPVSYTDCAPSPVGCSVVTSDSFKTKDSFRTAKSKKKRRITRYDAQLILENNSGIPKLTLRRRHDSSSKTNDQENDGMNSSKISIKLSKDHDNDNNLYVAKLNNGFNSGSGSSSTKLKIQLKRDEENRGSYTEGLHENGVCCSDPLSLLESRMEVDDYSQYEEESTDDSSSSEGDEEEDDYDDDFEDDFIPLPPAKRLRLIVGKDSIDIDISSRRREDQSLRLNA

With `Cc1cc(C)c(CNC(=O)c2cc(Cl)c3c(c2C)O[C@@](C)([C@H]2CC[C@H](N(C)C)CC2)O3)c(=O)[nH]1` [(2R)-7-chloro-2-[trans-4-(dimethylamino)cyclohexyl]-N-[(4,6-dimethyl-2-oxo-1,2-dihydropyridin-3-yl)methyl]-2,4-dimethyl-1,3-benzodioxole-5-carboxamide (Valemetostat)], the concentration for half-maximal inhibition (IC50) came out at 1000 nM.
